Experiments:
[1] = system: soluble epoxide hydrolase (sEH); test: Fluorescent assay for mouse and human soluble epoxide hydrolase (CMNPC substrate); assay type: biochemical; conditions: recombinant sEH, CMNPC substrate 5 μM, 30° C
Text: Fluorescent Assay for Mouse and Human Soluble Epoxide Hydrolase
Recombinant mouse sEH (MsEH) and human sEH (HsEH) were produced in a baculovirus expression system as previously reported. Grant et al., J. Biol. Chem., 268:17628-17633 (1993); Beetham et al., Arch. Biochem. Biophys., 305:197-201 (1993). The expressed proteins were purified from cell lysate by affinity chromatography. Wixtrom et al., Anal. Biochem., 169:71-80 (1988). Protein concentration was quantified using the Pierce BCA assay using bovine serum albumin as the calibrating standard. The preparations were at least 97% pure as judged by SDS-PAGE and scanning densitometry. They contained no detectable esterase or glutathione transferase activity which can interfere with the assay. The assay was also evaluated with similar results in crude cell lysates or homogenate of tissues.
The IC50s for each inhibitor were according to the following procedure: Substrate: [drawing 66]
Cyano(2-methoxynaphthalen-6-yl)methyl (3-phenyloxiran-2-yl)methyl carbonate (CMNPC; Jones P. D. et. al.; Analytical Biochemistry 2005; 343: pp. 66-75)
Bis/Tris HCl 25 mM pH 7.0 containing 0.1 mg/mL of BSA (buffer A)
CMNPC at 0.25 mM in DMSO.
Mother solution of enzyme in buffer A (Mouse sEH at 6 μg/mL and Human sEH at 5 μg/mL).
Inhibitor dissolved in DMSO at the appropriate concentration.
In a black 96 well plate, fill all the wells with 150 μL of buffer A.
Add 2 μL of DMSO in well A2 and A3, and then add 2 μL of inhibitor solution in A1 and A4 through A 12.
Add 150 μL of buffer A in row A, then mix several time and transfer 150 μL to row B. Repeat this row operation up to row H. The 150 μL removed from row H go to the trash.
Add 20 μL of buffer A in column 1 and 2, then add 20 μL of enzyme solution to column 3 to 12.
Incubate the plate for 5 minutes in the plate reader at 30° C.
During incubation prepare the working solution of substrate by mixing 3.68 mL of buffer A (4×0.920 mL) with 266 μL (2×133 μL (2×133 μL) of substrate solution).
At t=0, add 30 μL of working substrate solution with multi-channel pipette labeled “Briggs 303” and start the reading ([S]final: 5 μM).
Read with ex: 330 nm (20 nm) and em: 465 nm (20 nm) every 30 second for 10 minutes. The velocities are used to analyze and calculate the IC50s.

Row | SMILES | melting point [°C] | % I ([1]; compound concentration 50 nM) [%] | % I ([1]; compound concentration 500 nM) [%]
1 | Cc1nccn1-c1ccc(NC(=O)Nc2ccc(C(F)(F)F)cc2)cc1 [Compound 12, 1-[4-(2-methyl-1H-imidazol-1-yl)-phenyl]-3-(4-trifluoromethyl-phenyl)-urea] | 234 to 238 | 96 | –
2 | O=C(Nc1ccc(-n2cnc(Cl)c2Cl)cc1)Nc1ccc(C(F)(F)F)cc1 [Compound 13, 1-[4-(4,5-dichloro-1H-imidazol-1-yl)-phenyl]-3-(4-trifluoromethyl-phenyl)-urea] | 221 to 224 | 95 | –
3 | O=C(Nc1ccc(N2CCOCC2)cc1)Nc1ccc(C(F)(F)F)cc1 [Compound 14, 1-(4-Morpholin-4-yl-phenyl)-3-(4-trifluoromethyl-phenyl)-urea] | 228 to 232 | 87 | –
4 | O=C(Nc1ccc(N2CCCC2=O)cc1)Nc1ccc(C(F)(F)F)cc1 [Compound 15] | 282 to 285 | 74 | –
5 | O=C(Nc1ccc(C(F)(F)F)cc1)Nc1cccc(N2CCOCC2)c1 [Compound 19, 1-(3-Morpholin-4-yl-phenyl)-3-(4-trifluoromethyl-phenyl)-urea] | 240 to 244 | 79 | –
6 | O=C(Nc1ccc(C(F)(F)F)cc1)Nc1cccc(N2CCCC2=O)c1 [Compound 20, 1-[3-(2-Oxo-pyrrolidin-1-yl)-phenyl]-3-(4-trifluoromethyl-phenyl)-urea] | 220 to 224 | 84 | –

Continued, values first:

Row | melting point [°C] | % I ([1]; compound concentration 50 nM) [%] | % I ([1]; compound concentration 500 nM) [%] | SMILES
7 | 272 to 276 | – | – | O=C(Nc1ccc(-n2ccnc2)cc1)NC12CC3CC(CC(C3)C1)C2 [Compound 1, 1-Adamantan-1-yl-3-[4-(1H-imidazol-1-yl)-phenyl]-urea]
8 | > 300 | 82 | – | O=C(Nc1ccc(N2CCCC2=O)cc1)NC12CC3CC(CC(C3)C1)C2 [Compound 5, 1-Adamantan-1-yl-3-[4-(2-oxo-pyrrolidin-1-yl)-phenyl]-urea]
9 | 239 to 242 | – | 88 | O=C(Nc1cccc(N2CCCC2=O)c1)NC12CC3CC(CC(C3)C1)C2 [Compound 10, 1-Adamantan-1-yl-3-[3-(2-oxo-pyrrolidin-1-yl)-phenyl]-urea]
10 | 209 to 213 | 92 | – | O=C(Nc1ccc(-n2ccnc2)cc1)Nc1ccc(C(F)(F)F)cc1 [Compound 11, 1-(4-(1H-imidazol-1-yl)-phenyl)-3-(4-trifluoromethyl-phenyl)-urea]
